Data published in paper PMC10492782, “Exploiting the aggregation propensity of beta-lactamases to design inhibitors that induce enzyme misfolding” (Nature Communications, 2023).
Read-outs that look alike come from different tables or passages of the source.

How the values were obtained:
TEM-1 [1] = target: TEM-1 (Escherichia coli, UniProt P62593); type: biochemical, E. coli; set-up: His-tag (N); TEV cleavage site (N); made in house; host or cells: E. coli BL21 (DE3); settings: static light scattering during temperature ramp, inhibitor titration
From the text: Then, we performed a thermal denaturation whilst simultaneously monitoring the intrinsic fluorescence as a measure of the folding status of the molecule (Fig. 1D and Supplementary Fig. 2D) and the static light scattering as a measure of aggregation (Fig. 1E and Supplementary Fig. 2E).
D Heat denaturation of TEM-1 monitored by intrinsic fluorescence plotted as the BaryCentric Mean (BCM) of the fluorescence emission spectrum in the presence (red) and absence (blue) of tazobactam. […] E Temperature-dependent evolution of the Right-Angle Light Scattering (RALS) intensity measured simultaneously with the data in D to monitor protein aggregation. […] F Same data as in E, but showing a dose-titration of the beta-lactamase inhibitor tazobactam.

E. coli NDM-5b = settings: checkerboard, strain containing NDM5b
From the text: (§1) As we wondered about the generality of our peptide design approach, we set out to design a peptide to inactivate a structurally unrelated beta-lactamase. To this end, we turned to the Ambler class B beta-lactamase NDM-1 that confers resistance to many beta-lactam antibiotics, including carbapenems, and strains carrying this enzyme were soon dubbed ‘superbugs’ that are only partially sensitive to colistin and tigecycline. This enzyme was first isolated from a patient in 2008[41]. By 2010 it could be detected in clinical isolates throughout the UK and India[42], and by 2015, in over 70 countries worldwide.
(§2) For the analysis of synergy between the peptides and other antibiotics, a checkerboard assay was performed. Based on the MICs of the selected peptides, a checkerboard assay was designed to define their FICIs (Fractional Inhibitory Concentration Index) in combinations against different clinical isolates[53],[54]. Briefly, a total volume of 100 μL of Mueller–Hinton broth was distributed into each well of the 96-well plates. The first compound (peptide) of the combination was serially diluted vertically (128, 64, 32, 16, 8, 4, 2, 0 μg/mL) while the other drug (Beta-lactam or Kanamycin) was diluted horizontally in a 96-well plate (from 3200 to 3 μg/ mL). The total volume of each microtiter well was inoculated with 100 μL of MHB containing 1 × 10^6 CFU/mL bacteria. The plates were incubated at 37 °C for 24 h under aerobic conditions without shaking. Calculation of the FICI is used to analyze the results of the checkerboard assay by estimating the degree of synergistic effect. FICI is calculated as the sum of the individual fractional inhibitory concentrations (FICs) for each drug (where MIC A and MIC B denote the MIC of each drug alone, and MIC AA+B and MIC BA+B denote the concentrations of A and B in the drug combination). FICI = (MIC AA+B/MIC A) + (MIC BA+B/MIC B). With FICI ≤ 0.5, the combination of antibiotics is considered as a synergistic effect, 0.5 < FICI ≤ 1 indicates additivity, FICI > 1 indicates indifference.

E. coli NDM-5a = settings: for FICi values: E. coli NDM-5a
From the text: as §1, §2

E. coli TEM104 = system: E. coli TEM104
Procedure: To quantify the synergy between these four peptides and penicillin G, we performed a so-called checkerboard assay, which allows us to compare the activity of two test compounds co-incubated (here peptide and a beta-lactam antibiotic), to their individual activities in isolation. […] We evaluated the synergy of the peptides with penicillin G in clinical E. coli isolates carrying the TEM (Fig. 3D) or SHV enzymes (Fig. 3E). […] The list of strains included some that harbored only TEM or SHV, but others contained additional Ambler Class A (CTX-M or OXA) or Class B (VIM and NDM) beta-lactamases.
as §2

[2] = system: uro-pathogenic E. coli strain (UPEC strain blaTEM-1); test: MIC of ampicillin with or without 32 µg/mL TEM3.2 or tazobactam; type: cell-based, Escherichia coli; settings: Escherichia coli; no additive
Procedure: We also performed a tolerability study using a dose escalation method by administering the peptide at 2, 5, 10, 15, and 20 mg/kg via different parenteral routes: intravenous (IV), intraperitoneal (IP), and subcutaneous (SC) in female C57BL/6JAX mice, aged 8–10 weeks (Suppl Table 4). […] Vehicle alone (0.9% NaCl) was also administered (IV). After 24 h the animals were sacrificed and the bacterial load in the bladder, kidney, and ureter was quantified by determining the number of colony-forming units (CFU) per mL of tissue extract (Fig. 7E–G).
Determination of MIC values was performed using the broth microdilution method according to the EUCAST guideline, which was performed in 96-well polystyrene flat-bottom microtiter plates (BD Biosciences). Briefly, a single colony was inoculated into 5 mL Difco™ Mueller–Hinton Broth (BD Biosciences Ref 275730) and grown to the end-exponential growth phase in a shaking incubator at 37 °C. Cultures were subsequently diluted to a MacFarland (0.5 optical density) to reach 10^6 CFU/mL in fresh MHB medium. 50 µl of different concentrations of peptides ranging from 128 to 2 µg/mL were serially diluted to the sterile 96-well plate in MHB. 50 µL of the diluted bacteria in MHB were next pipetted into 96-well plates to reach the final volume of 100 µL. The bacteria grown with the maximum concentration of carrier and medium were considered positive and negative controls, respectively. The plates were statically incubated overnight at 37 °C to allow bacterial growth. OD was measured at 590 nm using a multipurpose ultraviolet–visible plate reader, and the absorbance of the bacterial growth was measured using an absorbance reader.

E. coli TEM-148 = test: VITEK 2 AST antimicrobial susceptibility testing; type: cell-based, Escherichia coli
Procedure: (§3) Beta-lactamase clinical samples were collected from University Hospitals Leuven and tested for ESBL production using the disk diffusion method. The beta-lactamase reference isolates were purchased from International Health Management Associates (IHMA). Bacterial strains were cultivated in Mueller–Hinton Broth (MHB, Difco) at 37 °C. Whenever required, growth media were supplemented with appropriate antibiotics to the medium or plates (kanamycin 30 µg/mL, L-arabinose 0.5 mg/mL, and IPTG […]). Escherichia coli BL21 (ThermoFisher Scientific, Belgium) was used for cloning and plasmid amplification. For the selection of antibiotic resistant colonies, E. coli carrying plasmids was grown in LB agar plates supplemented with the relevant antibiotic. Bacterial CFU counting was done on blood agar plates (BD Biosciences, Belgium) or MHA agar plates. Species identification and antibiograms for all clinical isolates were performed using MALDI-Tof and VITEK® 2 automated system (BioMérieux, France).
(§4) Khodaparast et al Supplementary data
(§5) study. […] Abbreviations: S,
(§6) susceptible; I, intermediate; R, resistant.

E. coli NDM5a = test: VITEK 2 AST antimicrobial susceptibility testing; type: cell-based, Escherichia coli
Procedure: as §3, §4, §5, §6

E. coli TEM-206 = test: VITEK 2 AST antimicrobial susceptibility testing; type: cell-based, Escherichia coli; settings: E. coli TEM-206
Procedure: as §3, §4, §5, §6

E. coli SHV1 (APHA) = test: VITEK 2 AST antimicrobial susceptibility testing; type: cell-based, Escherichia coli
Procedure: as §3, §4, §5, §6

E. coli NDM5b = test: VITEK 2 AST antimicrobial susceptibility testing; type: cell-based, Escherichia coli
Procedure: as §3, §4, §5, §6

E. coli TEM-16 = test: VITEK 2 AST antimicrobial susceptibility testing; type: cell-based, Escherichia coli
Procedure: as §3, §4, §5, §6

E. coli TEM-104 = test: VITEK 2 AST antimicrobial susceptibility testing; type: cell-based, Escherichia coli
Procedure: as §3, §4, §5, §6

TEM-1 [3] = settings: ampicillin as substrate; cited from earlier work
NDM-5 = settings: ampicillin as substrate; cited from earlier work
E. coli TEM-30 = type: cell-based, Escherichia coli
Procedure: as §3, §4, §5, §6

OXA-48 = settings: ampicillin as substrate; cited from earlier work
From the text: (§7) Abbreviations: S, susceptible; I, intermediate; R, resistant.

VIM-1 = settings: ampicillin as substrate; cited from earlier work
From the text: as §7

E. coli UZ_TEM104 = test: FACS with pFTAA (aggregation) and propidium iodide (cell death); type: cell-based, Escherichia coli; settings: 4 h; penicillin G 400 μg/mL and/or TEM3.2 50 μg/mL
Procedure: Fig. 6 Uptake and inclusion body formation upon peptide treatment. Fluorescence-activated cell-sorting (FACS) (A) of E. coli strain UZ_TEM104 mixed 50–50% with the same strain after heat-inactivation. The cells were stained with pFTAA to monitor aggregation and propidium iodide (PI) to monitor cell permeabilization associated with cell death. 10^6 cells were analyzed for the plot. […] B Similar FACS analysis as in A, but with a sample of live bacteria only. […] Note: the horizontal and vertical lines correspond to the gatings used to obtain the quantifications shown in the corners of each image.
Treated bacteria were washed with PBS buffer two times. One microliter of PI (Invitrogen) was added to the bacteria and incubated for 5 min. The bacteria were counted by FACS to reach 40000 events. To correlate the activity of the peptides with cell death, the fluorescence intensity was measured in two channels using the Gallios^TM Flow Cytometer (Beckman Coulter, USA), PI: excitation 536 nm and emission 617 nm, FITC: excitation 490 nm and emission 525 nm. Heated bacteria at 90 °C for 10 min were used as PI-positive control.
The bacterial cultures were washed with PBS, and the number of bacteria was adjusted to 10^8–10^9 cells/mL. […] Then, cells were treated with LCO dyes (pFTAA; Amytacker^TM680 or Amytacker^TM545: final concentration of 0.5 µM; Ebba Biotech, Sweden) for at least 90 min. The absorption, emission, and excitation spectra for each dye were measured based on the standard Ebbabiotec advice (ebbabiotech.com).

E. coli strain UZ_TEM104 = test: microbe, parasite or virus in culture; type: cell-based, Escherichia coli; settings: Escherichia coli, read-out: MIC penicillin

Chain of TEM-1 (Escherichia coli, UniProt P62593) (P62593 24-286 limits assumed): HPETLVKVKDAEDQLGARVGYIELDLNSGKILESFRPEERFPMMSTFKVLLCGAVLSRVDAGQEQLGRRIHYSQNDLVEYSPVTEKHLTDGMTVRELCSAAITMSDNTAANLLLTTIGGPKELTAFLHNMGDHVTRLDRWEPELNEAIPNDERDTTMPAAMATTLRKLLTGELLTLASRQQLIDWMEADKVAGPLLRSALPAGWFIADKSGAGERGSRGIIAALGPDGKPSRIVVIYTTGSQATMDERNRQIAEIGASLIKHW

NC(=O)[C@@H]1CC[C@@H]2CN1C(=O)N2OS(=O)(=O)O [avibactam]
effect on aggregation of TEM-1, dose-response (in words) (TEM-1 [1]): reduce the aggregation of the enzyme in a dose-responsive manner

Ac-RLAAALMLRRPRAQILNWIRR-NH2 [NDM1-2]
synergy with penicillin (in words) (E. coli NDM-5b): show synergy
FICi values (E. coli NDM-5a; Replicate1): 0.375
FICi values (E. coli NDM-5a; Replicate2): 0.36
FICi values (E. coli NDM-5a; Replicate3): 0.25
FICi values (E. coli NDM-5a; Replicate4): 0.159
FICi values (E. coli NDM-5a; Replicate5): 0.25
synergy with penicillin (in words) (E. coli NDM-5a; checkerboard, strain containing NDM5a): show synergy
FICi values (E. coli TEM104; TEM104, Replicate1): 0.75
FICi values (E. coli TEM104; TEM104, Replicate2): 1
FICi values (E. coli TEM104; TEM104, Replicate3): 0.5
FICi values (E. coli TEM104; TEM104, Replicate4): 1
FICi values (E. coli TEM104; TEM104, Replicate5): 0.72

O=C(O)C[C@@H]1CC[C@H](NC(=O)Cc2cccs2)B(O)O1 [vaborbactam]
effect on aggregation of TEM-1, dose-response (in words) (TEM-1 [1]): reduce the aggregation of the enzyme in a dose-responsive manner

CC1(C)S[C@@H]2[C@H](NC(=O)[C@H](N)c3ccccc3)C(=O)N2[C@H]1C(=O)O [Ampicillin]
MIC [2]: 1200 µg/mL
Interoretation (E. coli TEM-148; E. coli TEM-148): R
Interpretation (E. coli TEM-148; VITEK 2 AST card): R
Interoretation (E. coli NDM5a; E. coli NDM5a): R
Interpretation (E. coli NDM5a; VITEK 2 AST card): R
Interoretation (E. coli TEM-206): R
Interoretation (E. coli SHV1 (APHA); E. coli SHV154): R
Interpretation (E. coli SHV1 (APHA); VITEK 2 AST card): R
Interoretation (E. coli NDM5b; E. coli NDM5b): R
Interpretation (E. coli NDM5b; VITEK 2 AST card): R
Interoretation (E. coli TEM-16; E. coli TEM-16): R
Interpretation (E. coli TEM-16; VITEK 2 AST card): R
Interoretation (E. coli TEM-104; E. coli TEM-104): R
Interpretation (E. coli TEM-104; VITEK 2 AST card): R
Kcat (TEM-1 [3]): 1428 s⁻¹
Km (TEM-1 [3]): 50 µM
Kcat (NDM-5): 1912 s⁻¹
Km (NDM-5): 118 µM
Interoretation (E. coli TEM-30; E. coli TEM-30): R
Interpretation (E. coli TEM-30; VITEK 2 AST card): R
Kcat (OXA-48): 955 s⁻¹
Km (OXA-48): 395 µM
Kcat (VIM-1): 37 s⁻¹
Km (VIM-1): 917 µM

CC1(C)S[C@@H]2[C@H](NC(=O)Cc3ccccc3)C(=O)N2[C@H]1C(=O)O [penicillin G, Benzylpenicillin sodium]
shift in pFTAA and PI channels (in words) (E. coli UZ_TEM104): no major change in either channel
MIC (E. coli strain UZ_TEM104): 1600 µg/mL
